Patent publication US12616203B2, “Use of 3-isoxazolidinones compounds as selective herbicides” (FMC Corporation, priority 2014, dated 2026)

Legend:
Wild oat = test: Ex12 PRE 2,4-DC + dimethenamid-P, % control 28 DAT, Colby; type: in vivo, Avena fatua
Experimental: (§1) The tested weeds include: wild buckwheat (Polygonum convolvulus, POLCO), velvetleaf (Abutilon theophrasti, ABUTH), cheat (Bromus secalinus, BROSE), wild oat (Avena fatua, AVEFA), radish (Raphanus sativus, RAPSN), corn poppy (Papaver rhoeas, PAPRH), yellow foxtail (Setaria pumila, SETLU), Italian ryegrass (Lolium perenne ssp. multiflorum, LOLMU). The tested crop was Oilseed rape.
(§2) This greenhouse study was conducted to assess the preemergence (PRE) weed control and oilseed rape tolerance with 2,4 DC (CS 36.7%) and dimethenamid-P (Outlook®, 63.9%) tank-mix combinations.
(§3) Metazachlor (Butisan, 43.1%) plus dimethenamid-P applied as tank mix at 500 g each was applied as commercial standard. Treatments were replicated 3 times and flats were watered after planting but before the treatment and then lightly watered after treatment application. Thereafter flats were watered and fertilized routinely.

Wild buckwheat [1] = test: as above; type: in vivo, Polygonum convolvulus
Experimental: as §1, §2, §3

weeds [2] = test: Ex20 PRE greenhouse; type: in vivo; conditions: weed and rate in the words
Excerpt: Herbicides: • 2,4 DC-21 (36.7% CS): 125, 170, 210, or 250 g ai/ha alone and as tank-mix with dimethenamid-P • Dimethanamid-P (Outlook, 63.9%): 250, 375, 500 g ai/ha in combination with 2,4 DC and alone, additional treatment alone at 750 g ai/ha. • Metazachlor (Butisan 43.1%): 500 g ai/ha
Herbicides included as standards for comparison were metazachlor plus dimethenamid-P (500 g) as tank mix combination. […] Treatments were replicated 3 times. […] Thereafter flats were watered and fertilized routinely.

[3] = tested on: weeds; Wheat, barley, and oil seed rape (OSR); test: Ex19 PRE greenhouse; type: in vivo; conditions: rate in the words
Excerpt: In this study, the crops tested included Wheat, barley, and oil seed rape (OSR).
To determine weed efficacy and wheat, barley or OSR selectivity, 2,4 DC (CS 36.7%) and Diflufenican (CS 19.5%) were applied preemergence either alone or as tank-mix partners at the following rates. 2,4 DC was applied at 125, 170, 210 and 250 g ai/ha while Diflufenican was applied at 50, 75, and 100 g ai/ha. Pyroxasulfone (KIH-485, 85%) at 74.3 g ai/ha, pendimethalin (Prowl 3.3EC, 37.4%) at 1200 g ai/ha, or a premix of chlorsulfuron plus metsulfuron-methyl (Report Extra, 75%) at 15.8 g ai/ha were applied as commercial standards.
Herbicides included as standards for comparison were pyroxasulfone, pendimethalin, and a pre mix of chlorsulfuron plus metsulfuron methyl, all applied at labeled rates as indicated above. Treatments were replicated 3 times. […] Thereafter flats were watered and fertilized routinely.

Morningglory sp. = test: Ex38 PRE 2,4-DC + pyroxasulfone, % control 28 DAT, Colby; type: in vivo, Ipomea spp; conditions: PRE
Excerpt: Pyroxasulfone plus fluthiacet-methyl (ANTHEM™, 23.3%) applied at 165 g ai/ha was included as a standard for comparison. […] Thereafter flats were watered and fertilized routinely.

Common ragweed = test: Ex16 PRE 2,4-DC + pyroxasulfone, % control 28 DAT, Colby; type: in vivo, Ambrosia artemisiifolia
Excerpt: (§4) To determine PRE efficacy, five levels of 2,4 DC (36.7% CS) 0, 125, 170, 210, or 250 g ai/ha and five levels of pyroxasulfone (KIH485-85WG) 0, 50, 65, 80, or 95 g ai/ha were applied either alone or as tank-mix. Additional treatments consisted of premix of pyroxasulfone plus fluthiacet-methyl (Anthem™ 23.3%) at 169.9 g ai/ha, S-metolachlor (Dual II Magnum, 82.4%) at 1388 g, and tank-mix of mesotrione (Callisto, 40%) at 123 g plus S-metolachlor at 1252 g. […] Treatments were applied before the emergence of black nightshade, giant foxtail, green foxtail, yellow foxtail, large crabgrass, kochia, redroot pigweed, common ragweed, and barnyardgrass.
(§5) Flats were watered and fertilized routinely after treatment application. Each treatment was replicated three times.

weeds [4] = test: Ex24 PRE greenhouse; type: in vivo; conditions: weed and rate in the words
Excerpt: The tested weeds include Giant foxtail (Setaria faberi, SETFA), green foxtail (Setaria virdis, SETVI), yellow foxtail (Setaria pumila, SETLU), black nightshade (Solanum nigrum, SOLNI), kochia (Kochia scoparia, KCHSC), redroot pigweed (Amaranthus retroflexus, AMARE), common ragweed (Ambrosia artemisiifolia, AMBEL), barnyardgrass (Echinochloa crus-galli, ECHCG), large crabgrass (Digitaria sanguinalis, DIGSA).
as §4, with “DC-21” for “DC”, “Magnum®,” for “Magnum,”, “(Callisto®,” for “(Callisto,”, “bamyardgrass. […] Flats were watered and fertilized routinely after treatment application. Each treatment was replicated three times.” for “barnyardgrass.”

weeds [5] = test: Ex13 PRE greenhouse; type: in vivo; conditions: 28 DAT, weed and rate in the words
Excerpt: Pyroxasulfone (KIH-485, 85%) at 74.3 g ai/ha, pendimethalin (Prowl 3.3EC, 37.4%) at 1200 g ai/ha, or a premix of chlorsulfuron plus metsulfuron-methyl (Report Extra, 75%) at 15.8 g ai/ha were applied as commercial standards. […] Treatments were replicated 3 times and flats were watered after planting before the treatment and lightly watered after treatment application. Thereafter flats were watered and fertilized routinely.

weeds [6] = test: Ex16 PRE greenhouse; type: in vivo; conditions: weed and rate in the words
Excerpt: as §4, §5

[7] = tested on: weeds; Corn (var. Viking); test: Ex15 PRE greenhouse; type: in vivo; conditions: rate in the words
Excerpt: (§6) The weeds tested in this study were redroot pigweed (Amaranthus retroflexus, AMARE), Jimsonweed (Datura stramonium, DATST), black nightshade (Solanum nigrum, SOLNI), large crabgrass (Digitaria sanguinalis, DIGSA), Pennsylvania smartweed (Polygonum pensylvanicum, POLPY), horseweed (Conyza canadensis, ERICA), wild buckwheat (Polygonum convolvulus, POLCO). The crop tested was Corn (var. Viking).
(§7) To determine PRE efficacy and corn injury, five rates of each 2,4 DC (36.7% CS) and S-metolachlor (Dual II Magnum®, 82.4%) were applied either alone or as tank-mix. 2,4 DC was applied at 0, 125, 170, 210, or 250 g ai/ha and S-metolachlor was applied at 0, 267, 534, 801, or 1070 g ai/ha. Additional treatments included application of premix of pyroxasulfone plus fluthiacet-methyl (Anthem™ 23.3%) at 169.9 g ai/ha and tank-mix of mesotrione (Callisto®, 40%) at 123 g plus S-metolachlor at 1252 g. Treatments were applied just after the planting of large crabgrass, Jimsonweed, black nightshade, redroot pigweed, Pennsylvania smartweed, horseweed, wild buckwheat, and corn.
(§8) Flats were watered and fertilized routinely after treatment application. Each treatment was replicated three times. […] Corn injury was rated for bleaching and stunting.

Pennsylvania smartweed = test: Ex15 PRE 2,4-DC + S-metolachlor, % control 28 DAT, Colby; type: in vivo, Polygonum pensylvanicum
Excerpt: as §6, §7, §8

Black nightshade = test: as above; type: in vivo, Solanum nigrum
Excerpt: as §6, §7, §8

Wild buckwheat [8] = test: as above; type: in vivo, Polygonum convolvulus
Excerpt: as §6, §7, §8

jimsonweed = test: as above; type: in vivo, Datura stramonium
Excerpt: as §6, §7, §8

weeds [9] = test: Ex21 PRE greenhouse; type: in vivo; conditions: 28 DAT, weed and rate in the words
Excerpt: 2,4 DC (36.7% CS) was applied PRE at 0, 125, 170, 210, or 250 g ai/ha alone or as a tank-mix with S-metolachlor (Dual II Magnum®, 82.4%) at 0, 267, 534, 801, or 1070 g ai/ha. Pyroxasulfone plus fluthiacet-methyl (Anthem™, 23.3%) applied at 169.9 g ai/ha, and the tank-mix of mesotrione (Callisto®, 40%) at 123 g plus S-metolachlor (Dual II Magnum®, 82.4%) at 1252 g were included as standards for comparison. […] Thereafter flats were watered and fertilized routinely. Each treatment was replicated three times.

weeds [10] = test: Ex22 PRE greenhouse; type: in vivo; conditions: 28 DAT, weed and rate in the words
Excerpt: 2,4 DC (36.7% CS) was applied PRE at 0, 125, 170, 210, or 250 g ai/ha alone or as a tank-mix with S-metolachlor (Dual II Magnum®, 82.4%) at 0, 267, 534, 801, or 1070 g ai/ha. Pyroxasulfone plus fluthiacet-methyl (Anthem™, 23.3%) applied at 169.9 g ai/ha, and the tank-mix of mesotrione (Callisto®, 40%) at 123 g plus S-metolachlor (Dual II Magnum®, 82.4%) at 1252 g were included as a standards for comparison.
Thereafter flats were watered and fertilized routinely. Each treatment was replicated three times.

weeds; Corn = test: Ex25 PRE greenhouse; type: in vivo; conditions: rate in the words
Excerpt: The crop tested in this study was Corn.
2,4 DC-21 (36.7% CS) was applied PRE at 0, 125, 170, 210, or 250 g ai/ha alone or as a tank-mix with pyroxasulfone (KIH-485, 85% WP) at 0, 50, 65, 80, or 95 g ai/ha. Pyroxasulfone plus fluthiacet-methyl (Anthem™, 23.3%) applied at 169.9 g ai/ha, s-metolachlor (Dual II Magnum®, 82.4%) applied at 1389 g, and the tank-mix of mesotrione (Callisto®, 40%) at 123 g plus s-metolachlor (Dual II Magnum®, 82.4%) at 1252 g were included as a standards for comparison. […] Thereafter flats were watered and fertilized routinely.

weeds [11] = test: Ex10 PRE greenhouse; type: in vivo; conditions: 28 DAT, weed and rate in the words
Excerpt: Treatments 1-12 of 2,4-DC and aclonifen tank-mix combinations follow same rates listed above. […] Sulfentrazone (Spartan 4F® 39.6%) at 280 g ai/ha, pendimethalin (Prowl 3.3®EC, 37.4%) at 784 g ai/ha, or S-metolachlor (Dual II Magnum® 82.4%) at 1084 g ai/ha were applied as commercial standards. Treatments were replicated 3 times and flats were watered after planting but before the treatment and lightly watered after treatment application. Thereafter flats were watered and fertilized routinely. […] Shepherd's-purse was rated at 21 and 28 DAT only, due to delayed emergence.

[12] = dimethenamid-P alone 250 g ai/ha
[13] = dimethenamid-P alone 375 g ai/ha
[14] = dimethenamid-P alone 500 g ai/ha
[15] = S-metolachlor alone 267 g ai/ha
[16] = S-metolachlor alone 534 g ai/ha
[17] = S-metolachlor alone 801 g ai/ha
[18] = S-metolachlor alone 1070 g ai/ha

COC[C@H](C)N(C(=O)CCl)c1c(C)csc1C [Dimethenamid-P, dimethenamid-P, reference compound]
Y (Wild oat; [12]): 66% | Y (Wild oat; [13]): 73% | Y (Wild oat; [14]): 90% | Y (Wild buckwheat [1]; [12]): 32% | Y (Wild buckwheat [1]; [13]): 70% | Y (Wild buckwheat [1]; [14]): 63% | weed control in words (weeds [2]): alone controlled redroot pigweed, giant foxtail, and goosegrass at all rates; common chickweed at ≥375 g; shepherd's-purse at ≥500 g; and Canada thistle at 750 g

Cn1nc(C(F)(F)F)c(CS(=O)(=O)C2=NOC(C)(C)C2)c1OC(F)F [Pyroxasulfone, pyroxasulfone, reference compound]
weed control / crop safety in words [3]: controlled all weeds except field violet and was safe on wheat only | Y (% control, pyroxasulfone alone) (Morningglory sp.; pyroxasulfone 30 g ai/ha): 9% | Y (% control, pyroxasulfone alone) (Morningglory sp.; pyroxasulfone 60 g ai/ha): 60% | Y (% control, pyroxasulfone alone) (Morningglory sp.; pyroxasulfone 90 g ai/ha): 65% | Y (Common ragweed; pyroxasulfone alone 50 g ai/ha): 40% | Y (Common ragweed; pyroxasulfone alone 65 g ai/ha): 53% | Y (Common ragweed; pyroxasulfone alone 80 g ai/ha): 40% | Y (Common ragweed; pyroxasulfone alone 95 g ai/ha): 70% | weed control in words (weeds [4]): controlled all species except common ragweed which was not controlled at any rate | weed control in words (weeds [5]): at 74.3 g controlled all weeds except tall morningglory and shepherd's-purse | weed control in words (weeds [6]): controlled all species except common ragweed which was not controlled at any rate

CCc1cccc(C)c1N(C(=O)CCl)[C@@H](C)COC [S-metolachlor, reference compound]
weed control / crop safety in words [7]: alone gave control of all species at different rates except Jimsonweed | Y (Pennsylvania smartweed; [15]): 75% | Y (Pennsylvania smartweed; [16]): 95% | Y (Pennsylvania smartweed; [17]): 100% | Y (Pennsylvania smartweed; [18]): 100% | Y (Black nightshade; [15]): 46% | Y (Black nightshade; [16]): 85% | Y (Black nightshade; [17]): 90% | Y (Black nightshade; [18]): 95% | Y (Wild buckwheat [8]; [15]): 33% | Y (Wild buckwheat [8]; [16]): 65% | Y (Wild buckwheat [8]; [17]): 82% | Y (Wild buckwheat [8]; [18]): 85% | Y (jimsonweed; [15]): 17% | Y (jimsonweed; [16]): 17% | Y (jimsonweed; [17]): 23% | Y (jimsonweed; [18]): 28% | weed control in words (weeds [9]): applied alone controlled yellow foxtail, green foxtail, and barnyardgrass at all rates, quackgrass or common chickweed at ≥534 g, and common lambsquarters at ≥801 g | weed control in words (weeds [10]): applied alone controlled Johnsongrass and goosegrass at all rates and controlled Benghal dayflower, prickly sida and common lambsquarters at 801 g | weed control / crop safety in words (weeds; Corn): controlled only black nightshade and also caused severe stunting to corn | weed control in words (weeds [11]): at 1064 g controlled only two weeds | weed control in words (weeds [6]): controlled black nightshade, redroot pigweed, barnyardgrass, large crabgrass, and all three foxtail species
